Measured values from patent US5719128A, “Factor IIa inhibitors” (Akzo Nobel N.V., priority 1991, dated 1998).
Residues, ends and D or L forms follow the SMILES beside them.

Legend:
Format in all cases: biochemical
[1] = biological target: aXa (Homo sapiens, UniProt P00742); assay: aXa-activity, chromogenic substrate s2222; settings: measured after 90 minutes, expressed as molar concentration
Description: (§1) The inhibition of human thrombin was investigated by continuously monitoring the splitting of the chromogenic substance S 2238 (N-D-Phe-L-pipecolyl-L-Arg-p-nitro-anilide 2 HCl) in the absence and in the presence of 3, 1, 0.3, 0.1 and 0.03 mM of the compound investigated. These measurements were performed with the help of a kinetic microtiter plate reader. From these measurements the end absorbances were calculated after 90 minutes. Based on these total scores, an IC50 of the various compounds investigated is expressed as the molar concentration which inhibited the end absorbance by 50%. IC50 values for aXa-activity were investigated in the same way by using the chromogenic substrate s2222 (N-benzoyl-Ile-Glu-(OCH3)Gly-Arg-pNa).

[2] = biological target: human thrombin (Homo sapiens, UniProt P00734); assay: Inhibition of human thrombin (aIIa), splitting of chromogenic substrate S 2238; settings: measured after 90 minutes, expressed as the molar concentration which inhibited the end absorbance by 50%
Description: as §1

[3] = biological target: T1, Factor IIa (Homo sapiens, UniProt P00734); assay: Ki against Factor IIa; settings: called minimum inhibitory concentrations
T1 construct: Ki [M]-Factor IIa

Sequence of aXa (P00742 41-179 limits assumed): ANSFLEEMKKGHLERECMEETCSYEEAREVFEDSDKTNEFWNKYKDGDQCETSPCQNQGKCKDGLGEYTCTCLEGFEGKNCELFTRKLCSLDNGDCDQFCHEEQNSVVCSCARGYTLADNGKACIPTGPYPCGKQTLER
Sequence of aXa (P00742 235-488 limits assumed): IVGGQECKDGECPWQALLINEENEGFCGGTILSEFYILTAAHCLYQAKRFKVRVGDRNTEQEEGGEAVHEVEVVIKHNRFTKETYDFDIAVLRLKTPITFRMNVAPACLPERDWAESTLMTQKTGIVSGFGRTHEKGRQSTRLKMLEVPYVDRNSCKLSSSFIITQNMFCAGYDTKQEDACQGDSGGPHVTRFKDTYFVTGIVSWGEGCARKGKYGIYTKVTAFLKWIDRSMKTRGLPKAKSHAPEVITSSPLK

Row | IC50 [1] | IC50 [2] | Ki [3] | SMILES
1 | 3100 µM | 110 µM |  | C[C@H](NC(=O)[C@H](CCCNC(=N)N)NC(=O)[C@@H]1CCCN1C(=O)[C@H](N)Cc1ccccc1)C(=O)N[C@@H](Cc1ccccc1)C(=O)N[C@@H](CCCCN)C(=O)O [H-D-Phe-Pro-Arg-Ala-Phe-Lys-OH] (HELM PEPTIDE1{[dF].P.R.A.F.K}$$$$V2.0)
2 | 4800 µM | 4000 µM | 70 µM | N=C(N)NCCC[C@H](NC(=O)[C@@H]1CCCN1C(=O)[C@H](N)Cc1ccccc1)C(=O)NCC(=O)O [H-D-Phe-Pro-Arg-Gly-OH, reference compound] (HELM PEPTIDE1{[dF].P.R.G}$$$$V2.0)
3 | 1600 µM | 250 µM | 3.4 µM | N=C(N)NCCC[C@H](NC(=O)[C@@H]1CCCN1C(=O)[C@H](N)Cc1ccccc1)C(=O)NCC(=O)N[C@@H](Cc1ccccc1)C(=O)N[C@@H](CCCCN)C(=O)O [H-D-Phe-Pro-Arg-Gly-Phe-Lys-OH] (HELM PEPTIDE1{[dF].P.R.G.F.K}$$$$V2.0)
4 | 1300 µM | 410 µM | 7.6 µM | N=C(N)NCCC[C@H](NC(=O)[C@@H]1CCCN1C(=O)[C@H](N)Cc1ccccc1)C(=O)NCC(=O)N[C@@H](Cc1ccccc1)C(=O)O [H-D-Phe-Pro-Arg-Gly-Phe-OH] (HELM PEPTIDE1{[dF].P.R.G.F}$$$$V2.0)
5 |  |  | 26 µM | N=C(N)NCCC[C@H](NC(=O)[C@@H]1CCCN1C(=O)[C@H](N)Cc1ccccc1)C(=O)CCC(=O)O [H-D-Phe-Pro-Arg-psi[COCH2 ]-Gly-OH]
6 |  |  | 0.028 µM | NCCCC[C@H](NC(=O)[C@H](Cc1ccccc1)NC(=O)CCC(=O)[C@H](CCCN=C(N)N)NC(=O)[C@@H]1CCCN1C(=O)[C@H](N)Cc1ccccc1)C(=O)O [H-D-Phe-Pro-Arg-psi[COCH2 ]-Gly-Phe-Lys-OH] (HELM PEPTIDE1{[dF].P.[N=C(N)NCCC[C@H](N[*:1])C(=O)CCC(=O)[*:2]].F.K}$$$$V2.0)
7 | 2100 µM | 37 µM | 0.48 µM | N=C(N)NCCC[C@H](NC(=O)[C@@H]1CCCN1C(=O)[C@H](N)Cc1ccccc1)C(=O)CCC(=O)N[C@@H](Cc1ccccc1)C(=O)O [H-D-Phe-Pro-Arg-psi[COCH2 ]-Gly-Phe-OH]
